Reference: ChEMBL document CHEMBL1201862, “PubChem BioAssay data set” (2004)
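How tested: cells in 96-well plates exposed to compound for 48 hours at five concentrations. GI50: concentration for 50% inhibition of growth.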 Active and inactive are the calls of the source. No stated cut-off is given here; in the data, active = GI50 up to about 1.1 µM and inactive = higher.

How the values were obtained:
Experiment in all cases: growth of human tumour cells (NCI), 48 h
[1] = system: SK-MEL-2
[2] = system: U-251
[3] = system: SNB-19
[4] = system: SK-MEL-5
[5] = system: COLO 205
[6] = system: HL-60
[7] = system: T47D
[8] = system: SF-539
[9] = system: SF-295
[10] = system: MDA-MB-231
[11] = system: SF-268
[12] = system: 786-0
[13] = system: SNB-75
[14] = system: A498
[15] = system: MOLT-4
[16] = system: RXF 393
[17] = system: IGROV-1
[18] = system: NCI-H23
[19] = system: OVCAR-8
[20] = system: HT-29
[21] = system: K562
[22] = system: SK-MEL-28
[23] = system: OVCAR-4
[24] = system: SK-OV-3
[25] = system: HCC 2998
[26] = system: MDA-N
[27] = system: RPMI-8226
[28] = system: MCF7
[29] = system: HCT-116
[30] = system: KM12
[31] = system: NCI-H460
[32] = system: ACHN
[33] = system: OVCAR-3
[34] = system: HOP-62
[35] = system: M14
[36] = system: TK-10
[37] = system: MDA-MB-435
[38] = system: A549
[39] = system: SW-620
[40] = system: LOX IMVI
[41] = system: HCT-15
[42] = system: UO-31
[43] = system: OVCAR-5
[44] = system: HOP-92
[45] = system: Hs-578T
[46] = system: PC-3
[47] = system: NCI-H226
[48] = system: Malme-3M
[49] = system: CCRF-CEM
[50] = system: UACC-257
[51] = system: DU-145
[52] = system: NCI/ADR-RES
[53] = system: CAKI-1
[54] = system: BT-549
[55] = system: EKVX
[56] = system: SN12C
[57] = system: UACC-62
[58] = system: SR
[59] = system: NCI-H522

SMILES: CC1(C)OC(C(=O)Nc2cc3c4ccccc4ccc3c3ccccc23)C(C(=O)N2CCCCC2)O1 (stereo unspecified)
- GI50 [1]: 9.18 µM (inactive)
- GI50 [2]: 1.14 µM (inactive)
- GI50 [3]: 4.2 µM (inactive)
- GI50 [4]: 1.98 µM (inactive)
- GI50 [5]: 0.966 µM (active)
- GI50 [6]: 1.41 µM (inactive)
- GI50 [7]: 6.62 µM (inactive)
- GI50 [8]: 0.587 µM (active)
- GI50 [9]: 1.32 µM (inactive)
- GI50 [10]: > 38.9 µM (inactive)
- GI50 [11]: 2.43 µM (inactive)
- GI50 [12]: 1.77 µM (inactive)
- GI50 [13]: 2.74 µM (inactive)
- GI50 [14]: > 23.9 µM (inactive)
- GI50 [15]: 0.574 µM (active)
- GI50 [16]: 1.17 µM (inactive)
- GI50 [17]: 1.32 µM (inactive)
- GI50 [18]: > 21.4 µM (inactive)
- GI50 [19]: 0.957 µM (active)
- GI50 [20]: 0.74 µM (active)
- GI50 [21]: 0.619 µM (active)
- GI50 [22]: > 39.4 µM (inactive)
- GI50 [23]: 21.5 µM (inactive)
- GI50 [24]: 20.6 µM (inactive)
- GI50 [25]: > 74.1 µM (inactive)
- GI50 [26]: 5.94 µM (inactive)
- GI50 [27]: 0.592 µM (active)
- GI50 [28]: 1.16 µM (inactive)
- GI50 [29]: 0.507 µM (active)
- GI50 [30]: 2.18 µM (inactive)
- GI50 [31]: 0.385 µM (active)
- GI50 [32]: 0.897 µM (active)
- GI50 [33]: 2.29 µM (inactive)
- GI50 [34]: 17.6 µM (inactive)
- GI50 [35]: 3.56 µM (inactive)
- GI50 [36]: > 22.6 µM (inactive)
- GI50 [37]: 2.7 µM (inactive)
- GI50 [38]: 1.04 µM (active)
- GI50 [39]: 0.813 µM (active)
- GI50 [40]: 0.344 µM (active)
- GI50 [41]: 0.419 µM
- GI50 [42]: 2.17 µM (inactive)
- GI50 [43]: > 100 µM (inactive)
- GI50 [44]: 31.6 µM (inactive)
- GI50 [45]: 3.72 µM (inactive)
- GI50 [46]: 3.33 µM (inactive)
- GI50 [47]: 60.4 µM (inactive)
- GI50 [48]: > 100 µM (inactive)
- GI50 [49]: 0.537 µM (active)
- GI50 [50]: > 25.1 µM (inactive)
- GI50 [51]: 5.97 µM (inactive)
- GI50 [52]: 2.08 µM (inactive)
- GI50 [53]: 0.493 µM (active)
- GI50 [54]: 47 µM (inactive)
- GI50 [55]: > 54.8 µM (inactive)
- GI50 [56]: 9.18 µM (inactive)
- GI50 [57]: 1.17 µM (inactive)
- GI50 [58]: 0.0964 µM (active)
- GI50 [59]: 0.863 µM (active)

SMILES: Cc1cccc2c1C(=O)C(C1OC(=O)c3ccccc31)C2 (stereo unspecified)
- GI50 [1]: > 100 µM (inactive)
- GI50 [2]: 61 µM (inactive)
- GI50 [3]: > 100 µM (inactive)
- GI50 [4]: 95.5 µM (inactive)
- GI50 [5]: > 100 µM (inactive)
- GI50 [6]: > 100 µM (inactive)
- GI50 [7]: > 100 µM (inactive)
- GI50 [8]: > 100 µM (inactive)
- GI50 [9]: > 100 µM (inactive)
- GI50 [10]: > 100 µM (inactive)
- GI50 [11]: 79.6 µM (inactive)
- GI50 [12]: > 100 µM (inactive)
- GI50 [13]: > 100 µM (inactive)
- GI50 [14]: > 100 µM (inactive)
- GI50 [15]: > 100 µM (inactive)
- GI50 [16]: 45.6 µM (inactive)
- GI50 [17]: > 100 µM (inactive)
- GI50 [18]: > 100 µM (inactive)
- GI50 [19]: > 100 µM (inactive)
- GI50 [20]: > 100 µM (inactive)
- GI50 [21]: > 100 µM (inactive)
- GI50 [22]: > 100 µM (inactive)
- GI50 [23]: > 100 µM (inactive)
- GI50 [24]: > 100 µM (inactive)
- GI50 [25]: > 100 µM (inactive)
- GI50 [26]: > 100 µM (inactive)
- GI50 [27]: 92.5 µM (inactive)
- GI50 [28]: > 100 µM (inactive)
- GI50 [29]: 90.6 µM (inactive)
- GI50 [30]: > 100 µM (inactive)
- GI50 [31]: > 100 µM (inactive)
- GI50 [32]: > 100 µM (inactive)
- GI50 [33]: > 100 µM (inactive)
- GI50 [34]: > 100 µM (inactive)
- GI50 [36]: > 100 µM (inactive)
- GI50 [37]: > 100 µM (inactive)
- GI50 [38]: > 100 µM (inactive)
- GI50 [39]: > 100 µM (inactive)
- GI50 [40]: > 100 µM (inactive)
- GI50 [41]: > 100 µM
- GI50 [42]: > 100 µM (inactive)
- GI50 [43]: > 100 µM (inactive)
- GI50 [44]: > 100 µM (inactive)
- GI50 [45]: 43.9 µM (inactive)
- GI50 [46]: > 100 µM (inactive)
- GI50 [47]: > 100 µM (inactive)
- GI50 [48]: > 100 µM (inactive)
- GI50 [49]: > 100 µM (inactive)
- GI50 [50]: > 100 µM (inactive)
- GI50 [51]: > 100 µM (inactive)
- GI50 [52]: > 100 µM (inactive)
- GI50 [53]: > 100 µM (inactive)
- GI50 [54]: > 100 µM (inactive)
- GI50 [55]: > 100 µM (inactive)
- GI50 [56]: > 100 µM (inactive)
- GI50 [57]: 45.7 µM (inactive)
- GI50 [58]: > 100 µM (inactive)
- GI50 [59]: > 100 µM (inactive)

SMILES: CC(=O)n1nc(-c2nc3ccccc3nc2Cl)cc1Cl
- GI50 [1]: 25.6 µM (inactive)
- GI50 [2]: 26.3 µM (inactive)
- GI50 [3]: 30.5 µM (inactive)
- GI50 [4]: 4.68 µM (inactive)
- GI50 [5]: 18.4 µM (inactive)
- GI50 [6]: 8.02 µM (inactive)
- GI50 [7]: 68.4 µM (inactive)
- GI50 [8]: 2.88 µM (inactive)
- GI50 [9]: 29.6 µM (inactive)
- GI50 [10]: 28.8 µM (inactive)
- GI50 [11]: 38.6 µM (inactive)
- GI50 [12]: 23.6 µM (inactive)
- GI50 [13]: 25.8 µM (inactive)
- GI50 [14]: > 71.4 µM (inactive)
- GI50 [15]: 1.9 µM (inactive)
- GI50 [16]: 40.7 µM (inactive)
- GI50 [17]: 30.1 µM (inactive)
- GI50 [18]: 6.24 µM (inactive)
- GI50 [19]: 26.4 µM (inactive)
- GI50 [20]: 23 µM (inactive)
- GI50 [21]: 3.61 µM (inactive)
- GI50 [22]: 24.7 µM (inactive)
- GI50 [23]: 19.5 µM (inactive)
- GI50 [24]: 20.5 µM (inactive)
- GI50 [25]: 36.6 µM (inactive)
- GI50 [26]: 8.36 µM (inactive)
- GI50 [27]: 13.6 µM (inactive)
- GI50 [28]: 26.9 µM (inactive)
- GI50 [29]: 3.78 µM (inactive)
- GI50 [30]: 19.4 µM (inactive)
- GI50 [31]: 32.8 µM (inactive)
- GI50 [32]: 11.6 µM (inactive)
- GI50 [33]: 19.8 µM (inactive)
- GI50 [34]: 20.3 µM (inactive)
- GI50 [35]: 4.43 µM (inactive)
- GI50 [36]: 37.4 µM (inactive)
- GI50 [37]: 3.94 µM (inactive)
- GI50 [38]: 29.5 µM (inactive)
- GI50 [39]: 2.88 µM (inactive)
- GI50 [40]: 5.47 µM (inactive)
- GI50 [41]: 11.2 µM
- GI50 [42]: 1.39 µM (inactive)
- GI50 [43]: 34.7 µM (inactive)
- GI50 [44]: > 69.8 µM (inactive)
- GI50 [45]: 34.5 µM (inactive)
- GI50 [46]: 30.9 µM (inactive)
- GI50 [47]: 10.3 µM (inactive)
- GI50 [48]: 23.4 µM (inactive)
- GI50 [49]: 2.45 µM (inactive)
- GI50 [50]: > 68.1 µM (inactive)
- GI50 [51]: 20.6 µM (inactive)
- GI50 [52]: 22.3 µM (inactive)
- GI50 [53]: 3.34 µM (inactive)
- GI50 [54]: 5.89 µM (inactive)
- GI50 [55]: 12.5 µM (inactive)
- GI50 [56]: 7.78 µM (inactive)
- GI50 [57]: 27.2 µM (inactive)
- GI50 [58]: 3.34 µM (inactive)
- GI50 [59]: 7.78 µM (inactive)
